Results published in PubChem BioAssay AID248 (DTP/NCI, 2004).
Inconclusive results and toxic doses are left out. Rule as the data show it: active = T/C of 150% or more; inactive = T/C below 125%.

Tested on: L1210 leukemia ip in BDF1 mice, survival T/C
Assay: NCI In Vivo Anticancer Drug Screen. Data for tumor model L1210 Leukemia (intraperitoneal) in B6D2F1 (BDF1) mice
Conditions: endpoint: mean survival time, higher = longer survival
How it was run: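 Value reflects the ratio of survival in compound-treated mice to survival in vehicle-treated controls, with both groups carrying the same transplanted tumor.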

[1] = dose: 100.0 mg/kg/injection, schedule: Q04DX003 (ip), vehicle: Klucel (hydroxypropylcellulose) (HPC)
[2] = dose: 200.0 mg/kg/injection, schedule: Q04DX003 (ip), vehicle: Klucel (hydroxypropylcellulose) (HPC)
[3] = dose: 400.0 mg/kg/injection, schedule: Q04DX003 (ip), vehicle: Klucel (hydroxypropylcellulose) (HPC)
[4] = dose: 100.0 mg/kg/injection, schedule: Q04DX003 (ip), vehicle: saline
[5] = dose: 200.0 mg/kg/injection, schedule: Q04DX003 (ip), vehicle: saline
[6] = dose: 50.0 mg/kg/injection, schedule: Q01DX009 (ip), vehicle: Klucel (hydroxypropylcellulose) (HPC)
[7] = dose: 100.0 mg/kg/injection, schedule: Q01DX009 (ip), vehicle: Klucel (hydroxypropylcellulose) (HPC)
[8] = dose: 100.0 mg/kg/injection, schedule: Q01DX009 (ip), vehicle: saline
[9] = dose: 200.0 mg/kg/injection, schedule: Q01DX009 (ip), vehicle: Klucel (hydroxypropylcellulose) (HPC)
[10] = dose: 200.0 mg/kg/injection, schedule: Q01DX009 (ip), vehicle: saline
[11] = dose: 12.5 mg/kg/injection, schedule: Q01DX009 (ip), vehicle: Klucel (hydroxypropylcellulose) (HPC)
[12] = dose: 400.0 mg/kg/injection, schedule: Q01DX009 (ip), vehicle: Klucel (hydroxypropylcellulose) (HPC)
[13] = dose: 50.0 mg/kg/injection, schedule: Q01DX009 (ip), vehicle: saline with Tween-80

Measured: T/C

COC(=O)C(Br)c1cccc(OC)c1 (stereo unspecified)
inactive: dose: 100.0 mg/kg/injection, schedule: Q01DX009 (ip), vehicle: saline sonified 100 % of control | dose: 100.0 mg/kg/injection, schedule: Q04DX003 (ip), vehicle: saline sonified 97 % of control | dose: 200.0 mg/kg/injection, schedule: Q01DX009 (ip), vehicle: saline sonified 120 % of control | dose: 200.0 mg/kg/injection, schedule: Q04DX003 (ip), vehicle: saline sonified 101 % of control | dose: 400.0 mg/kg/injection, schedule: Q01DX009 (ip), vehicle: saline sonified 105 % of control | dose: 400.0 mg/kg/injection, schedule: Q04DX003 (ip), vehicle: saline sonified 101 % of control

CC(=O)Nc1ccc(NCN2C(=O)c3ccccc3C2=O)cc1
inactive: [1] 100 % of control | [2] 97 % of control | [3] 97 % of control

Cc1n[nH]c(=S)n1C
inactive: [4] 108 % of control | [5] 113 % of control

NC(=O)c1ncc[nH]c1=O
inactive: [6] 94 % of control | dose: 50.0 mg/kg/injection, schedule: Q01DX009 (ip), vehicle: saline 97 % of control | [7] 97 % of control | [8] 103 % of control | [1] 97 % of control | [9] 105 % of control | [10] 90 % of control | [2] 95 % of control | [3] 100 % of control

Cc1c(C2=NCC(C)S2)ccc(O)c1N (stereo unspecified)
inactive: dose: 62.5 mg/kg/injection, schedule: Q04DX002 (ip), vehicle: saline with Tween-80 93 % of control | dose: 125.0 mg/kg/injection, schedule: Q04DX002 (ip), vehicle: saline with Tween-80 90 % of control | dose: 250.0 mg/kg/injection, schedule: Q04DX002 (ip), vehicle: saline with Tween-80 93 % of control

N#CC(C#N)=C1C(=O)c2ccccc2-c2ccccc21
inactive: dose: 100.0 mg/kg/injection, schedule: Q01DX001 (ip), vehicle: saline 107 % of control | dose: 200.0 mg/kg/injection, schedule: Q01DX001 (ip), vehicle: saline 109 % of control | dose: 400.0 mg/kg/injection, schedule: Q01DX001 (ip), vehicle: saline 105 % of control

CCc1nc(C)ncc1-c1ccc([N+](=O)[O-])cc1O
inactive: [1] 97 % of control | [2] 97 % of control | [3] 91 % of control

O=C1C=C(O)c2cc(Br)ccc2C1=O.[Ag]
inactive: dose: 100.0 mg/kg/injection, schedule: Q04DX002 (ip), vehicle: saline 105 % of control

COc1ccc(C(C)c2ccccc2)cc1 (stereo unspecified)
inactive: dose: 100.0 mg/kg/injection, schedule: Q04DX003 (ip), vehicle: saline with Tween-80 98 % of control | dose: 200.0 mg/kg/injection, schedule: Q04DX003 (ip), vehicle: saline with Tween-80 95 % of control | dose: 400.0 mg/kg/injection, schedule: Q04DX003 (ip), vehicle: saline with Tween-80 93 % of control

CC[N+](C)(CC)CCSC(=O)Nc1ccc(Cc2ccc(NC(=O)SCC[N+](C)(CC)CC)cc2)cc1
inactive: dose: 10.0 mg/kg/injection, schedule: Q04DX003 (ip), vehicle: Klucel (hydroxypropylcellulose) (HPC) 96 % of control | [11] 103 % of control | dose: 20.0 mg/kg/injection, schedule: Q04DX003 (ip), vehicle: Klucel (hydroxypropylcellulose) (HPC) 96 % of control

O=S1(=O)C=C2CCCCC21 (stereo unspecified)
inactive: dose: 75.0 mg/kg/injection, schedule: Q01DX001 (ip), vehicle: carboxymethylcellulose (CMC) 100 % of control

CCOc1ccccc1NC(=O)c1cc2ccccc2cc1O
inactive: [8] 102 % of control | [4] 98 % of control | [10] 109 % of control | [5] 102 % of control | dose: 400.0 mg/kg/injection, schedule: Q01DX009 (ip), vehicle: saline 102 % of control | dose: 400.0 mg/kg/injection, schedule: Q04DX003 (ip), vehicle: saline 100 % of control

CCCCCCCCCCCC[n+]1cccc2ccccc21
inactive: dose: 0.13 mg/kg/injection, schedule: Q01DX Z (ip), vehicle: carboxymethylcellulose (CMC) 112 % of control | dose: 0.25 mg/kg/injection, schedule: Q01DX Z (ip), vehicle: carboxymethylcellulose (CMC) 96 % of control | dose: 0.25 mg/kg/injection, schedule: Q04DX003 (ip), vehicle: saline 97 % of control | dose: 0.5 mg/kg/injection, schedule: Q01DX001 (ip), vehicle: saline 93 % of control | dose: 0.5 mg/kg/injection, schedule: Q01DX Z (ip), vehicle: carboxymethylcellulose (CMC) 98 % of control | dose: 0.5 mg/kg/injection, schedule: Q04DX003 (ip), vehicle: saline 92 % of control | dose: 0.7 mg/kg/injection, schedule: Q01DX009 (ip), vehicle: saline 92 % of control | dose: 1.0 mg/kg/injection, schedule: Q01DX001 (ip), vehicle: saline 88 % of control | dose: 1.0 mg/kg/injection, schedule: Q01DX015 (ip), vehicle: carboxymethylcellulose (CMC) 108 % of control | dose: 1.0 mg/kg/injection, schedule: Q01DX Z (ip), vehicle: carboxymethylcellulose (CMC) 98 % of control | dose: 1.0 mg/kg/injection, schedule: Q04DX003 (ip), vehicle: saline 108 % of control | dose: 1.4 mg/kg/injection, schedule: Q04DX003 (ip), vehicle: saline 94 % of control | dose: 2.0 mg/kg/injection, schedule: Q01DX015 (ip), vehicle: carboxymethylcellulose (CMC) 106 % of control

CCC(C(=O)NC(C)c1ccc(-c2ccccc2)cc1)c1ccccc1 (stereo unspecified)
inactive: [7] 87 % of control | [9] 92 % of control | [12] 86 % of control

O=C(Nc1ccc(F)cc1)C(c1ccccc1)c1ccccc1
inactive: [7] 108 % of control | [1] 90 % of control | [9] 101 % of control | [2] 93 % of control | [12] 95 % of control | [3] 88 % of control

O=C1CN=C(c2ccccc2Cl)c2cc(Cl)ccc2N1
inactive: [11] 114 % of control | dose: 25.0 mg/kg/injection, schedule: Q01DX009 (ip), vehicle: Klucel (hydroxypropylcellulose) (HPC) 95 % of control | dose: 25.0 mg/kg/injection, schedule: Q04DX003 (ip), vehicle: Klucel (hydroxypropylcellulose) (HPC) 100 % of control | [6] 106 % of control | dose: 50.0 mg/kg/injection, schedule: Q04DX003 (ip), vehicle: Klucel (hydroxypropylcellulose) (HPC) 105 % of control | [7] 97 % of control | [1] 100 % of control | [9] 103 % of control | [2] 120 % of control

NC(=O)C1=C(CCCCl)c2ccccc2C1=O
inactive: [13] 100 % of control

Cc1c(C(C)c2[nH]c3ccccc3c2C)[nH]c2ccccc12
inactive: dose: 50.0 mg/kg/injection, schedule: Q01DX001 (ip), vehicle: other 98 % of control | dose: 100.0 mg/kg/injection, schedule: Q01DX001 (ip), vehicle: other 102 % of control | dose: 200.0 mg/kg/injection, schedule: Q01DX001 (ip), vehicle: other 91 % of control | dose: 400.0 mg/kg/injection, schedule: Q01DX001 (ip), vehicle: other 93 % of control

CCN(CC)CCNc1ccc(N=Nc2ccc(SC)cc2)c2ccccc12
inactive: dose: 6.25 mg/kg/injection, schedule: Q01DX015 (ip), vehicle: carboxymethylcellulose (CMC) 91 % of control | dose: 12.5 mg/kg/injection, schedule: Q01DX015 (ip), vehicle: carboxymethylcellulose (CMC) 93 % of control | dose: 25.0 mg/kg/injection, schedule: Q01DX015 (ip), vehicle: carboxymethylcellulose (CMC) 86 % of control | [13] 94 % of control | dose: 50.0 mg/kg/injection, schedule: Q01DX015 (ip), vehicle: carboxymethylcellulose (CMC) 87 % of control | dose: 50.0 mg/kg/injection, schedule: Q04DX003 (ip), vehicle: saline 96 % of control | dose: 100.0 mg/kg/injection, schedule: Q01DX009 (ip), vehicle: saline with Tween-80 103 % of control | [4] 89 % of control | [5] 88 % of control

Cc1nc(N)[nH]c(=O)c1CCCNS(=O)(=O)c1ccccc1
inactive: dose: 50.0 mg/kg/injection, schedule: Q01DX001 (ip), vehicle: Klucel (hydroxypropylcellulose) (HPC) 105 % of control | dose: 100.0 mg/kg/injection, schedule: Q01DX001 (ip), vehicle: Klucel (hydroxypropylcellulose) (HPC) 94 % of control | dose: 200.0 mg/kg/injection, schedule: Q01DX001 (ip), vehicle: Klucel (hydroxypropylcellulose) (HPC) 90 % of control
